Test results published in PubChem BioAssay (NCI).
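Assay format: 96-well plates, 48-hour exposure. The concentration for full growth arrest is given as TGI.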

How the values were obtained:
Assay in all cases: NCI anticancer screen, dose series, 48 h
DLD-1 colon = test system: DLD-1 colon
DMS 114 small cell lung = test system: DMS 114 small cell lung
HOP-18 NSCLC = test system: HOP-18 NSCLC
LXFL 529 NSCLC = test system: LXFL 529 NSCLC
M19-MEL melanoma = test system: M19-MEL melanoma
RXF-631 renal = test system: RXF-631 renal
SNB-78 CNS = test system: SNB-78 CNS
MDA-MB-435 = test system: MDA-MB-435
MDA-N = test system: MDA-N

SMILES	TGI (DLD-1 colon) [µM]	TGI (DMS 114 small cell lung) [µM]	TGI (HOP-18 NSCLC) [µM]	TGI (LXFL 529 NSCLC) [µM]	TGI (M19-MEL melanoma) [µM]	TGI (RXF-631 renal) [µM]	TGI (SNB-78 CNS) [µM]	TGI (MDA-MB-435) [µM]	TGI (MDA-N) [µM]
S=c1nc(N2CCCCC2)ss1	> 100	42.4	88.4	54.2	52.3	79.4	99.1	–	–
N#C/C(=C\c1ccc(C(O)P(=O)(O)O)cc1)C(N)=O (centres undefined)	> 100	> 100	> 100	> 100	> 100	> 100	> 100	–	–
CC1(O)CCC2(C#N)CCC1C2O (centres undefined)	> 100	31.1	> 100	> 100	> 100	> 100	> 100	–	–
CCOC(=O)/C(=C\c1ccc[nH]1)C(=O)c1ccccc1	> 100	> 100	> 100	> 100	> 100	> 100	> 100	–	–
NS(=O)(=O)c1ccc(NC(=O)c2cccc3cc4ccccc4nc23)cc1	> 100	> 100	> 100	> 100	> 100	> 100	> 100	> 100	> 100
O=C(/C=C/c1ccccc1Cl)c1ccc(Cl)cc1Cl	32.3	26.3	31.2	29.7	31.9	34.6	36.2	–	–
